Experimental data: PubChem BioAssay (NCI)
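How tested: cells in 96-well plates exposed to compound for 48 hours at five concentrations. At the TGI there is no net growth.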

Assays:
Assay in all cases: growth of human tumour cells (NCI), 48 h
SN12C renal = tested on: SN12C renal
DU-145 prostate = tested on: DU-145 prostate
SF-268 CNS = tested on: SF-268 CNS
OVCAR-4 ovarian = tested on: OVCAR-4 ovarian
TK-10 renal = tested on: TK-10 renal
SK-OV-3 ovarian = tested on: SK-OV-3 ovarian
OVCAR-5 ovarian = tested on: OVCAR-5 ovarian
KM12 colon = tested on: KM12 colon
K-562 leukemia = tested on: K-562 leukemia
DMS 114 small cell lung = tested on: DMS 114 small cell lung

SMILES	TGI (SN12C renal) [µM]	TGI (DU-145 prostate) [µM]	TGI (SF-268 CNS) [µM]	TGI (OVCAR-4 ovarian) [µM]	TGI (TK-10 renal) [µM]	TGI (SK-OV-3 ovarian) [µM]	TGI (OVCAR-5 ovarian) [µM]	TGI (KM12 colon) [µM]	TGI (K-562 leukemia) [µM]	TGI (DMS 114 small cell lung) [µM]
[N-]=[N+]=CC(=O)C1CCCN1C(=O)c1ccccc1 (stereo not drawn)	> 10	> 10	> 10	> 10	> 10	> 10	> 10	> 10	> 10	
COC(=O)c1ccccc1C1CN=NC12Cc1c(ccc(C)c1C)C2=O (stereo not drawn)	> 100	> 100	> 100	> 100	> 100	> 100	> 100	> 100	> 100	
O=C(NCc1ccccc1)c1cc2ccccc2oc1=Nc1cccc(C(F)(F)F)c1	62.7	> 100	> 100	> 100	> 100	> 100	> 100	> 100	> 100	
Cc1ccc2c(c1C)C(=O)C1(Cc3cc4c(cc3C1=O)CCC4)C2 (stereo not drawn)	> 100	> 100	> 100	> 100	> 100	> 100	> 100	> 100	> 100	
COc1ccc(C)cc1N1C(=O)C2ON(Cc3ccc(CC(N)=O)cc3)C(c3c4ccccc4c(Cl)c4ccccc34)C2C1=O (stereo not drawn)	45.7	86.5	82.3	84.6	49.5	> 100	58.5	29.1	> 100	
CN(C)CCN(c1ccccn1)c1ccccn1	> 100	> 100	> 100	> 100	> 100	> 100	> 100	> 100	> 100	
CC(C)Oc1cccc(N2C(n3ccnc3)=Nc3ccncc3S2(=O)=O)c1	29.2	25	30.2	33.7	24.5	31.8	27.6	49.5	36.6	
Cc1ccc(-c2cc(-c3ccco3)c(C#N)c(=S)[nH]2)cc1	> 100	> 100	> 100	> 100	> 100	> 100	> 100	> 100	> 100	
CC1CC(N2CCOCC2)=Nc2ccccc2N1C (stereo not drawn)	> 100	> 100	> 100	> 100	> 100	> 100	> 100	> 100	> 100	
CC1=CC2C3(C)C(C)(C(C)=CP3(=O)c3c(C(C)C)cc(C(C)C)cc3C(C)C)C1P2(=O)c1c(C(C)C)cc(C(C)C)cc1C(C)C (stereo not drawn)	7.9	14.2	12.1	16.1	7.34	10.9	6.31	4.05	12.8	
Cc1c(N2CCOCC2)nc2ccc(Cl)cc2c1-c1ccccc1	> 100		> 100	> 100	> 100	> 100		> 100	> 100	> 100
O=CC(I)=C(c1ccccc1)c1ccccc1	45.3	32.7	> 56.8	27.3	44.8	29.9	40.7	28.7	> 71	
CN(O)C(=O)/C=C/c1ccc(OCc2cccc(Cl)c2)cc1	55.9	54.8	> 100	86.6	> 100	> 100	> 100	41.3	> 100	
CC1(C)CC(=O)C2=C(C1)C(c1ccccc1Cl)C1C(=O)CC(C)(C)CC1(O)O2 (stereo not drawn)	> 100	> 100	> 100	> 100	> 100	> 100	> 100	> 100	> 100	
O=c1oc2ccc3ccccc3c2cc1-c1cn2ccsc2n1	83.8	47.3	56.3	40.7	33.9	> 100	66.6	66.2	82.4	
COC(=O)[C@]1(C)CCC[C@@]2(C)C1CC[C@]13C=C(C(C)C)[C@H](CC21)CC3(Cl)C#N (stereo partly drawn)	> 100	> 100	> 100	> 100	> 100	> 100	> 100	> 100	> 100	
